Patent US20250011687A1, “BIODEGRADABLE CHELATING AGENTS AND METHODS FOR FABRIC CARE” (The Procter & Gamble Company, priority 2023, published 2025)

Legend:
[1] = pKa of chelating agents and catechin (Table 1); type: physicochemical
Source text: Chelation is a type of bonding of ions and molecules to metal ions. It involves the formation or presence of two or more separate coordinate bonds between a ligand and a metal atom. Without being bound by theory, the stain removal effectiveness of a composition comprising one or more chelating agents may depend at least in part on the ability of the chelating agent(s) to bind to iron, which may be present in some stains, such as fruit or beverage stains. Several factors may impact a chelating agent's ability to bind to iron. These factors may include the pKa of the chelating agent compared to the wash pH, and the affinity of the chelating agent to bind with other metals, materials, or compositions in the wash.
Various embodiments may provide or employ a composition that comprises one or more chelating agents having a pKa that is less than the wash pH.

[2] = calcium binding efficiency, logK(β110); type: physicochemical; details: one metal, one ligand, no protons
Source text: (§1) The binding efficiencies may be expressed as a binding constant. A binding constant (also called formation constant or stability constant) is an equilibrium constant for the formation of a complex in solution. It is a measure of the strength of the interaction between the reagents that come together to form the complex. As an example, various stains may comprise catechins as shown in Formula 13.
(§2) The chelating agent(s) according to various embodiments may, therefore, be selected to ensure a lower binding efficiency with calcium and a higher binding efficiency with iron at the wash pH.
(§3) In Table 1, the reaction between metals and ligands is described in terms of logK(β110). In this context, K, is the equilibrium constant for the reaction between ligands and metals. The higher K, the more metal is bound. This is illustrated in the following example.
(§4) β, represents the binding efficiency and receives some subscripts (βmlh) to indicate how many metals (m), ligands (l), and protons (h) respectively are involved.

[3] = iron binding efficiency, logK(β110); type: physicochemical; details: one metal, one ligand, no protons
Source text: as §1, §2, §3, §4

[4] = Example 1 stain removal in tergotometer wash, unit dose compositions at pH 7.0/8.5/10.0; details: treatments with pH<10.0; tropolone compared to HEDP or no chelating agent
Source text: Image analysis may be used to compare each stain to an unstained fabric control. Software may be used to convert images taken into standard colorimetric values and to compare these to standards based on the commonly used Macbeth Color Rendition Chart, assigning each stain a colorimetric value (Stain Level). The CIELAB color space, also referred to as L*a*b*, is a color space defined by the International Commission on Illumination (abbreviated CIE) in 1976.[a] It expresses color as three values: L* for perceptual lightness and a* and b* for the four unique colors of human vision: red, green, blue and yellow. The lightness value, L* defines black at 0 and white at 100. The a* axis is relative to the green-magenta opponent colors, with negative values toward green and positive values toward magenta. The b* axis represents the blue-yellow opponents, with negative numbers toward blue and positive toward yellow. In the following examples, various fabrics were analyzed using commercially available image analysis software for L*a*b* values. SRI values were then calculated from the L*a*b* values using the formula shown. The higher the SRI, the better the stain removal. […] One dose of detergent treatment, as detailed in Table 3 below, was added to a tergotometer and was evaluated using the Washing Method.

[5] = Example 3 stain removal in tergotometer wash, synthetic fabric; details: polyester, vs HEDP
Source text: Image analysis may be used to compare each stain to an unstained fabric control. Software may be used to convert images taken into standard colorimetric values and to compare these to standards based on the commonly used Macbeth Color Rendition Chart, assigning each stain a colorimetric value (Stain Level). The CIELAB color space, also referred to as L*a*b*, is a color space defined by the International Commission on Illumination (abbreviated CIE) in 1976.[a] It expresses color as three values: L* for perceptual lightness and a* and b* for the four unique colors of human vision: red, green, blue and yellow. The lightness value, L* defines black at 0 and white at 100. The a* axis is relative to the green-magenta opponent colors, with negative values toward green and positive values toward magenta. The b* axis represents the blue-yellow opponents, with negative numbers toward blue and positive toward yellow. In the following examples, various fabrics were analyzed using commercially available image analysis software for L*a*b* values. SRI values were then calculated from the L*a*b* values using the formula shown. The higher the SRI, the better the stain removal. […]

Row | SMILES | pKa ([1]; fourth listed pKa) | pKa ([1]; second listed pKa) | pKa ([1]; third listed pKa) | Ca^2+ logK(β110) [2] | Ca^2+ logK(β110) ([2]; listed as catechins) | Fe (III) logK(β110) [3] | Fe (III) logK(β110) ([3]; listed as catechins) | pKa ([1]; first listed pKa) | stain removal performance (in words) [4] | stain removal on synthetics fabric (in words) [5]
1 | Oc1cc(O)c2c(c1)OC(c1ccc(O)c(O)c1)C(O)C2 (stereo not shown) [Catechin] | 13.4 | 9.5 | 11.2 | 3.5 | about 3.5 | 19.2 | about 19.2 |  |  | 
2 | CC(O)(P(=O)(O)O)P(=O)(O)O [HEDP, 1-Hydroxyethylidene-1,1-diphosphonic acid] | 10.3 | 2.5 | 7.3 | 6.8 |  | 14.1 |  | 1.7 |  | 
3 | CC(C)c1cccc(=O)c(O)c1 [Hinokitiol, 2-Hydroxy-6-(propan-2-yl)cyclohepta-2,4,6-trien-1-one] |  |  |  | 2.2 |  | 12.9 |  | about 7 | improved stain removal performance | significantly improved stain removal
4 | O=c1cccccc1O [Tropolone, 2-Hydroxycyclohepta-2,4,6-trien-1-one] |  |  |  | 3.1 |  | 10.5 |  |  | improved stain removal performance | significantly improved stain removal
